ChEMBL document CHEMBL5614459, “Conformationally Constrained Isoquinolinones as Orally Efficacious Hepatitis B Capsid Assembly Modulators” (ACS Med Chem Lett, 2024)
Blank lines part the entries; values can stand above or below the compound they belong to. Activity calls are given as the source filed them. No cut-off for these calls is given here.

How the values were obtained:
[1] = Cytotoxicity against human HepDE19 cells by CellTiter-Glo assay; assay type: toxicity, cell-based
[2] = Selectivity index, ratio of CC50 for cytotoxicity against human HepDE19 cells to EC50 for antiviral activity against Hepatitis B virus genotype D infected in HepDE19 cells; assay type: toxicity, cell-based; settings: read-out: Ratio CC50/EC50
[3] = test system: Hepatitis B virus; test: Antiviral activity against Hepatitis B virus genotype D infected in HepDE19 cells assessed as inhibition of viral replication by measuring decrease in intracellular rcDNA level by bDNA assay; assay type: functional, organism-based
[4] = Intrinsic clearance in mouse liver microsomes; assay type: ADME, Microsome; settings: read-out: CLH
[5] = Intrinsic clearance in human liver microsomes; assay type: ADME, Microsome; settings: read-out: CLH
[6] = Cmax in CD-1 mouse at 10 mg/kg, po; assay type: ADME, organism-based; settings: in vivo
[7] = Half life in CD-1 mouse at 10 mg/kg, po; assay type: ADME, organism-based; settings: in vivo
[8] = AUC(last) in CD-1 mouse at 10 mg/kg, po; assay type: ADME, organism-based; settings: in vivo
[9] = Drug uptake in CD-1 mouse liver at 10 mg/kg, po or 2 mg/kg, iv measured after 24 hrs; assay type: ADME, organism-based; settings: read-out: Drug uptake
[10] = test system: Hepatitis B virus; test: Antiviral activity against Hepatitis B virus genotype D harboring core protein-T33N mutant; assay type: functional, organism-based
[11] = test system: Hepatitis B virus; test: Anti-viral activity against Hepatitis B virus infected in mouse assessed as log10 reduction of HBV DNA levels in serum at 3 mg/kg, po qd for 7 days; assay type: functional; settings: time 7 day
[12] = test system: Hepatitis B virus; test: Anti-viral activity against Hepatitis B virus infected in mouse assessed as log10 reduction of HBV DNA levels in serum at 10 mg/kg, po qd for 7 days; assay type: functional; settings: time 7 day
[13] = biological target: T1, Cytochrome P450 2B6 (Homo sapiens, UniProt P20813); test: Inhibition of CYP2B6 (unknown origin); assay type: ADME
T1 sequence (P20813 whole entry): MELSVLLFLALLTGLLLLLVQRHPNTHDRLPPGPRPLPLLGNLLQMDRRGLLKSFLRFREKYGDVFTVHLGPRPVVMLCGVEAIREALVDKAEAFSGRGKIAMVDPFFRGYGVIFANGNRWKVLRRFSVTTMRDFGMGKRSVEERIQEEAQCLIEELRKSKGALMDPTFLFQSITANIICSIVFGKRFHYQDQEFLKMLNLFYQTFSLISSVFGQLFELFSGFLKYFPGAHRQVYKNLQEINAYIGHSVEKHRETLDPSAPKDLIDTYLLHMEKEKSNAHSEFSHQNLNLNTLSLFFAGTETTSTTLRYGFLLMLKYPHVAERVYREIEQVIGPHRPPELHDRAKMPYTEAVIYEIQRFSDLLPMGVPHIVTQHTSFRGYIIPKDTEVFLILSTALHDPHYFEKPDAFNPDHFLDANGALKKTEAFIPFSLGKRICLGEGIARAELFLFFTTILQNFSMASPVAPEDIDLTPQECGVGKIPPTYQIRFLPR

[14] = biological target: Cytochrome P450 2D6 (Homo sapiens, UniProt P10635); test: Inhibition of CYP2D6 (unknown origin); assay type: ADME
Sequence of Cytochrome P450 2D6 (P10635 whole entry): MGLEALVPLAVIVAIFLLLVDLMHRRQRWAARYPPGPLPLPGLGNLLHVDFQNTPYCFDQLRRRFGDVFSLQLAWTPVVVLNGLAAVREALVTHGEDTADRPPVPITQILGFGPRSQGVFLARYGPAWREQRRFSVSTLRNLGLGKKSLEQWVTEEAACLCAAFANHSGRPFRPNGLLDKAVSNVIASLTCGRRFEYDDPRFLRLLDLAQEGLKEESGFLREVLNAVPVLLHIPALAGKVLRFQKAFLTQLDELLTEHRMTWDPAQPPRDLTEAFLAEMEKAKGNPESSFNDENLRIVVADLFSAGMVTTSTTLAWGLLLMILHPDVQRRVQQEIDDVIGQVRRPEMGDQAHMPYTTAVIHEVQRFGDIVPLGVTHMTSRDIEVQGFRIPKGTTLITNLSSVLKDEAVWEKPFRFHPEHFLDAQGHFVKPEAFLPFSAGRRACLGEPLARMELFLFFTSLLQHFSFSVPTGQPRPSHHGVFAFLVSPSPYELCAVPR

[15] = biological target: Cytochrome P450 3A4 (Homo sapiens, UniProt P08684); test: Inhibition of CYP3A4 (unknown origin); assay type: ADME
Sequence of Cytochrome P450 3A4 (P08684 whole entry): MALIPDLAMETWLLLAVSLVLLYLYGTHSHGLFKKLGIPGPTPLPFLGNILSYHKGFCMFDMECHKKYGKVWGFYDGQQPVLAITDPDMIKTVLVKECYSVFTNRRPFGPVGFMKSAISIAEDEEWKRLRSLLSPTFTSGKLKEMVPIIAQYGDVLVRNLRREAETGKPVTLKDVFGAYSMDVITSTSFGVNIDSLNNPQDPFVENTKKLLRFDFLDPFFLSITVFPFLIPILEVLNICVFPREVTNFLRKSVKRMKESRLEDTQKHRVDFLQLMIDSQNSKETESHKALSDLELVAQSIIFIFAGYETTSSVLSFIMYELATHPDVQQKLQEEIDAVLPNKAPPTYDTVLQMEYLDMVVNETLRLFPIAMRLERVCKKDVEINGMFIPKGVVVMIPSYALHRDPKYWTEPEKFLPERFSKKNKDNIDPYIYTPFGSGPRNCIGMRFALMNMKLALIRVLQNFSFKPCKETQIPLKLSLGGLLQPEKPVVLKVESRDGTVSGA

[16] = biological target: Cytochrome P450 2C19 (Homo sapiens, UniProt P33261); test: Inhibition of CYP2C19 (unknown origin); assay type: ADME
Sequence of Cytochrome P450 2C19 (P33261 whole entry): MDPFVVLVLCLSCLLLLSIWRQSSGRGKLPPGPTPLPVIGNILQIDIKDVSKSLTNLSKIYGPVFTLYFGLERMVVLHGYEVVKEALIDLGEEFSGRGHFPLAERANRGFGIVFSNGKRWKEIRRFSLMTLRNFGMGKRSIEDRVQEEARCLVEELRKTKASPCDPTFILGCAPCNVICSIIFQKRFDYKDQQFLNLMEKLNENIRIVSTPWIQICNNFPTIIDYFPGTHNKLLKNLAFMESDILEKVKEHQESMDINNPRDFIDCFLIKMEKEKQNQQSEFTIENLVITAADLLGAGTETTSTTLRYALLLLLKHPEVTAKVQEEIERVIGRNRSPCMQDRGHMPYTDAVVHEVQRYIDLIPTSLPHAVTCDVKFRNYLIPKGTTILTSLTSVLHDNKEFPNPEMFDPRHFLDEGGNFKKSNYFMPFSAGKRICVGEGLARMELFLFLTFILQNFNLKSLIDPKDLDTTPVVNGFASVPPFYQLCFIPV

[17] = biological target: Core antigen (Hepatitis B virus) (UniProt Q03732); test: Binding affinity to Hepatitis B virus core protein assessed as inhibition of capsid assembly by measuring inhibition of pgRNA-encapsidation; settings: filed as modulator
Sequence of Core antigen (Hepatitis B virus) (Q03732 as listed by the source): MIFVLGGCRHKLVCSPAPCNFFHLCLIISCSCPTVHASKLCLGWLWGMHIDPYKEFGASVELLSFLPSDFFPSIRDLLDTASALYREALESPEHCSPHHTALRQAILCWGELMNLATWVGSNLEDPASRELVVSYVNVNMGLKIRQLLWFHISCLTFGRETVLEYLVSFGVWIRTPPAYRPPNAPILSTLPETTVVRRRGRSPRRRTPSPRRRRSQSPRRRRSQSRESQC

[18] = test system: Hepatitis B virus; test: Antiviral activity against Hepatitis B virus Genotype F (NCBI HE974369); assay type: functional, organism-based
[19] = test system: Hepatitis B virus; test: Antiviral activity against Hepatitis B virus Genotype D (NCBI U95551); assay type: functional, organism-based
[20] = test system: Hepatitis B virus; test: Antiviral activity against Hepatitis B virus genotype D infected in HepG2-hNTCP-C4 cells assessed as inhibition of cccDNA formation by de novo infection assay; assay type: functional, organism-based
[21] = test system: Hepatitis B virus; test: Antiviral activity against Hepatitis B virus Genotype E (NCBI AB091255); assay type: functional, organism-based
[22] = test system: Hepatitis B virus; test: Antiviral activity against Hepatitis B virus genotype D harboring core protein-I105T mutant; assay type: functional, organism-based
[23] = test system: Hepatitis B virus; test: Antiviral activity against Hepatitis B virus Genotype H (NCBI AB064315); assay type: functional, organism-based
[24] = test system: Hepatitis B virus; test: Antiviral activity against Hepatitis B virus Genotype H (NCBI AB179747); assay type: functional, organism-based
[25] = test system: Hepatitis B virus; test: Anti-viral activity against Hepatitis B virus infected in mouse assessed as log10 reduction of HBV DNA levels in serum at 1 mg/kg, po qd for 7 days; assay type: functional; settings: time 7 day
[26] = test system: Hepatitis B virus; test: Antiviral activity against Hepatitis B virus Genotype E (NCBI HE974380); assay type: functional, organism-based
[27] = test system: Hepatitis B virus; test: Antiviral activity against Hepatitis B virus Genotype C (NCBI AB198079); assay type: functional, organism-based; settings: genotype C (NCBI […])
[28] = test system: Hepatitis B virus; test: Anti-viral activity against Hepatitis B virus infected in mouse assessed as log10 reduction of HBV DNA levels in serum at 0.3 mg/kg, po qd for 7 days; assay type: functional; settings: time 7 day
[29] = biological target: Core antigen (Hepatitis B virus) (UniProt Q03732); test: Binding affinity to Hepatitis B virus core protein assessed as inhibition of capsid assembly by measuring induction of empty capsid formation; settings: filed as modulator
[30] = test system: Hepatitis B virus; test: Antiviral activity against Hepatitis B virus Genotype B (NCBI KU964112); assay type: functional, organism-based
[31] = test system: Hepatitis B virus; test: Antiviral activity against Hepatitis B virus Genotype B (NCBI GQ205440); assay type: functional, organism-based
[32] = test system: Hepatitis B virus; test: Antiviral activity against Hepatitis B virus Genotype A (NCBI AF537372); assay type: functional, organism-based
[33] = Hepatitis B virus, genotype D, HepDE19

SMILES: CC(C)CN(C(=O)Nc1ccc(F)c(Cl)c1)[C@@H]1CCc2[nH]c(=O)c3ccccc3c21
CC50 [1]: > 10000 nM
selectivity ratio [2]: > 1500
EC50 [3, 33]: 7 nM

SMILES: CN(C(=O)c1cc2cc(F)ccc2[nH]1)[C@@H]1COCc2[nH]c(=O)c3cc(F)c(F)cc3c21
microsomal CLint [4]: 48 µL/min/mg
microsomal CLint [5]: 95 µL/min/mg
CC50 [1]: > 10000 nM
selectivity ratio [2]: > 1500
EC50 [3, 33]: 4 nM

SMILES: CN(C(=O)Nc1ccc(F)c(Cl)c1)C1CCCc2[nH]c(=O)c3cc(F)c(F)cc3c21 (stereo in doubt)
EC50 ([3]; hepde19): 1030 nM

SMILES: CN(C(=O)c1cc2cc(F)c(F)c(F)c2[nH]1)[C@@H]1COCc2[nH]c(=O)c3cc(F)c(F)cc3c21
Cmax [6]: 1080 ng/mL
half-life [7]: 10.8 h
microsomal CLint [4]: 20 µL/min/mg
AUC(0-t) [8]: 15900 ng·h/mL
microsomal CLint [5]: 31 µL/min/mg
CC50 [1]: > 10000 nM
selectivity ratio [2]: > 1500
concentration at 24 h [9]: 3230 ng/g
EC50 [3, 33]: 5 nM

SMILES: CN(C(=O)Nc1ccc(F)c(Cl)c1)C1CCCc2[nH]c(=O)c3ccccc3c21 (racemic)
CC50 [1]: > 10000 nM
selectivity ratio [2]: > 1500
EC50 ([3]; hepde19): 84 nM

SMILES: CN(C(=O)Nc1ccc(F)c(C(F)F)c1)[C@@H]1COCc2[nH]c(=O)c3cc(F)c(F)cc3c21
Cmax [6]: 2340 ng/mL
half-life [7]: 2.9 h
EC50 [10]: 227 nM
log(activity) [11]: 1.68
log(activity) [12]: 2.68
AUC(0-t) [8]: 20800 ng·h/mL
CC50 [1]: > 10000 nM
selectivity ratio [2]: > 1500
concentration at 24 h [9]: 135 ng/g
EC50 [3, 33]: 6 nM

SMILES: CN(C(=O)Nc1ccc(F)c(Cl)c1)[C@@H]1CCc2[nH]c(=O)c3ccccc3c21
CC50 [1]: > 10000 nM
selectivity ratio [2]: > 1500
EC50 [3, 33]: 45 nM

SMILES: CN(C(=O)c1cc2cc(F)c(F)cc2[nH]1)[C@@H]1COCc2[nH]c(=O)c3cc(F)c(F)cc3c21
Cmax [6]: 2140 ng/mL
Activity [17]: Active
half-life [7]: 10.7 h
EC50 [18]: 1 nM
EC50 [19]: 1 nM
EC50 [20]: 26 nM
EC50 [21]: 1 nM
EC50 [22]: 6 nM
EC50 [10]: 63 nM
EC50 [23]: 1 nM
log(activity) [11]: 2.86
microsomal CLint [4]: 25 µL/min/mg
AUC(0-t) [8]: 31800 ng·h/mL
EC50 [24]: 1 nM
microsomal CLint [5]: 45 µL/min/mg
CC50 [1]: > 10000 nM
log(activity) [25]: 2.92
EC50 [26]: 13 nM
EC50 [27]: 1 nM
log(activity) [28]: 1.48
selectivity ratio [2]: > 1500
concentration at 24 h [9]: 4730 ng/g
Activity [29]: Active
EC50 [30]: 1 nM
EC50 [3, 33]: 5 nM
EC50 [31]: 1 nM
EC50 [32]: 1 nM

Continued, in another order:

microsomal CLint [4]: 23 µL/min/mg
microsomal CLint [5]: 86 µL/min/mg
EC50 [3, 33]: 9 nM
SMILES: CN(C(=O)Nc1ccc(F)c(Cl)c1)[C@@H]1CNCc2[nH]c(=O)c3cc(F)c(F)cc3c21
CC50 [1]: > 10000 nM
selectivity ratio [2]: > 1500

EC50 [3, 33]: 440 nM
SMILES: CN(C(=O)Nc1ccc(F)c(Cl)c1)C1CCCc2[nH]c(=O)c3c(F)c(F)ccc3c21 (racemic)
CC50 [1]: > 10000 nM
selectivity ratio [2]: > 1500

EC50 [3, 33]: 18 nM
SMILES: CN(C(=O)Nc1cc(F)c(F)c(F)c1)[C@@H]1COCc2[nH]c(=O)c3cc(F)c(F)cc3c21
CC50 [1]: > 10000 nM
selectivity ratio [2]: > 1500

EC50 [3, 33]: 470 nM
SMILES: CC(C)CN(C(=O)Nc1ccc(F)c(Cl)c1)C1CCCc2[nH]c(=O)c3ccccc3c21 (racemic)
CC50 [1]: > 10000 nM
selectivity ratio [2]: > 1500

IC50 [13]: < 10000 nM
IC50 [14]: 4300 nM
IC50 [15]: < 10000 nM
IC50 [16]: < 10000 nM
EC50 ([3]; hepde19): 12 nM
SMILES: CN(C(=O)Nc1ccc(F)c(Cl)c1)C1CCCc2[nH]c(=O)c3cc(F)c(F)cc3c21 (stereo in doubt; 8)

microsomal CLint [4]: 44 µL/min/mg
microsomal CLint [5]: 53 µL/min/mg
EC50 [3, 33]: 9 nM
SMILES: CN(C(=O)c1cc2ccc(F)cc2[nH]1)[C@@H]1COCc2[nH]c(=O)c3cc(F)c(F)cc3c21
CC50 [1]: > 10000 nM
selectivity ratio [2]: > 1500

microsomal CLint [4]: 57 µL/min/mg
microsomal CLint [5]: 81 µL/min/mg
EC50 [3, 33]: 11 nM
SMILES: CN(C(=O)c1cc2cccc(F)c2[nH]1)C1COCc2[nH]c(=O)c3cc(F)c(F)cc3c21 (stereo not given)
CC50 [1]: > 10000 nM
selectivity ratio [2]: > 1500
